These are literature values, as cited in article PMC3314724 (Journal of Molecular Modeling, 2011).

The EC50 is the concentration giving half of the maximal effect.

Data set [1] has as its system FPR1. To be noted: FPR1 agonist class, peptide derivatives.
Data set [2] deals with human neutrophils.

Regarding N-formyl-Met-Leu-Phe [fMLF], in data set [1], the “Observed value (activity class)” value is given as “Active”. Also, the EC50 in data set [2] is about 0.5 nM.
In the case of “N-formyl-Met-Leu-Ψ(COO) Phe-NHBzl [fMLΨ(COO)F-NHBzl]”, the “Observed value (activity class)” value in data set [1] was “Active”.
On to N-formyl-Met-Leu-Phe-OMe [fMLF-OMe], for which the “Observed value (activity class)” value in data set [1] is reported as “Active”.
On to “boc-cis-4-mer-captomethyl-Pro-Leu-Phe-OMe [boc-cis-4-mercaptomethyl-PLF-OMe]”, for which the “Observed value (activity class)” value in data set [1] is on record as “Active”.
